Tested on: Heterodera glycines race 3
Test: Soybean pot test, cyst count as indicator of nematode control
Format: in vivo
Conditions: 28 days after planting
Source text: A plug measuring 0.75 inch (approximately 1.9 cm) in diameter and 1 inch (approx. 2.5 cm) in depth was removed from each 3 inch diameter×8 inch deep (approx. 7.6×20 cm) plastic pot. Five thousand Heterodera glycines race 3 eggs were placed at the bottom of the plug hole. A soybean variety 3.6-B6 seed was placed on top of the inoculum. Six replicates were made for each treatment group. In addition to untreated control, the treatment groups were Pasteuria nishizawae, Bacillus firmus, and Pasteuria nishizawae+Bacillus firmus.
Bacillus firmus came applied as a seed treatment (available commercially, for example, from Bayer Crop Science as VOTIVO product, PONCHO/VOTIVO, having Bacillus firmus concentration at least 2×10^9 cfu/ml+clothianidin (0.13 mg/seed)). A point application containing Pasteuria nishizawae (approximately 5.0×10^9 spores) was applied directly to the seed in the pot. The plug was replaced in the hole to cover the seed. The soil was Vero Beach (Florida, USA) top soil, pH 5.9 (approximate composition sand 93%, silt 2%, clay 2%, organic matter 3%).
At 28 days after planting, plant height was measured and plants were removed from the pots. Soil was gently rinsed from the roots. The rinsed roots were placed in a 20 mesh over a 60 mesh sieve. The root system was blasted with water to remove cyst nematode females. The 20 mesh sieve was removed and the cysts were washed to the bottom of the 60 mesh sieve. The cysts were rinsed into a tube for counting under a stereoscope. Later the dry root weights were measured.

Substance: Pasteuria nishizawae
- Average Cyst Count (5000 eggs per pot, average of six replicates): 366
- Cyst Count (5000 eggs per pot, cysts washed from roots, average of six replicates): 366
- % Control Observed (from cyst count versus untreated control): 2.40%
